Assay results from publication PMC7286362 (Journal of medicinal chemistry, 2020).
Read-outs that look alike come from different tables or passages of the source.

What was measured:
PRMT6 [1] = molecular target: T1, PRMT6 (Homo sapiens, UniProt Q96LA8); format: cell-based; settings: for inhibition of H3R2me2a in cells: PRMT6-transfected HEK293T cells, 20 h
PRMT3 [2] = molecular target: T2, PRMT3 (Homo sapiens, UniProt O60678); format: cell-based; settings: HEK293T cells, 20 h, concentrations up to 20 μM
T2 sequence (O60678 whole entry, species assumed): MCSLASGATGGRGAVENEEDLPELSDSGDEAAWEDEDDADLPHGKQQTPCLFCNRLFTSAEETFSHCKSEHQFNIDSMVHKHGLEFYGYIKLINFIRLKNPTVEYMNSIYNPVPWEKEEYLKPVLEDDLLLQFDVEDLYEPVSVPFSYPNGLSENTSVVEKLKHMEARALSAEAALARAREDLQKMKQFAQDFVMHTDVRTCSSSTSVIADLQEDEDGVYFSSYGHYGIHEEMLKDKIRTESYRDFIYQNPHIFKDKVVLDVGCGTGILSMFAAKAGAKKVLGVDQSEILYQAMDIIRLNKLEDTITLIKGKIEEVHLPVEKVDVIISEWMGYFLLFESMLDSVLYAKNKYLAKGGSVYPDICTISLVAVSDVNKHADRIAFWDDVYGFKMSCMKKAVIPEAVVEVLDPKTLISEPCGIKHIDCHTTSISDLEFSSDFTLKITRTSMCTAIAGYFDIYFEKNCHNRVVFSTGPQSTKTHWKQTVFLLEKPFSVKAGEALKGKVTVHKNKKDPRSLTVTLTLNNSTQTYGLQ

[3] = molecular target: T3, endogenously expressed PRMT4 (Homo sapiens, UniProt Q86X55); experiment: Cellular PRMT4 assay: BAF155-Rme2a levels in MCF7 cells; format: cell-based; settings: 2 days, concentrations up to 20 μM
T3 sequence (Q86X55 1-608): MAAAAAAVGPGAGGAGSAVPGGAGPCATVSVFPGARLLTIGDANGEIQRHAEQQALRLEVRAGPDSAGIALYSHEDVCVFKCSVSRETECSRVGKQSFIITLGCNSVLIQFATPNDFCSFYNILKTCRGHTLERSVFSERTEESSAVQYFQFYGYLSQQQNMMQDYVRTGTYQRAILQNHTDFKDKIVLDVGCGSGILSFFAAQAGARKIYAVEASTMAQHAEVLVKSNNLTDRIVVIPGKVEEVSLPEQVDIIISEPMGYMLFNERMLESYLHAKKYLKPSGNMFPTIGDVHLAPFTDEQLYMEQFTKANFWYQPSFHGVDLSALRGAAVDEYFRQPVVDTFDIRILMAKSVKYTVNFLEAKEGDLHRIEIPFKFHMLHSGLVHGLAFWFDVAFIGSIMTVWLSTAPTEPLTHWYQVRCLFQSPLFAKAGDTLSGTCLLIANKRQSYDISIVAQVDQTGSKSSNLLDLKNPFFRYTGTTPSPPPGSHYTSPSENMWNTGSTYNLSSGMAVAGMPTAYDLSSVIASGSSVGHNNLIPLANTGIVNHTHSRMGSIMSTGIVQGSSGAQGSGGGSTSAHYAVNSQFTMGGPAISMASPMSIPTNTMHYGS

PRMT6 [4] = molecular target: T1, PRMT6; experiment: Scintillation proximity assay; format: biochemical; settings: SPA, 1 h preincubation
HEK293T cells = experiment: Cell viability assay; format: cell-based; settings: up to 20 μM, 3 days, CCK-8
[5] = system: PNT2 (a nontumorigenic prostate cell line); experiment: Cell viability assay; format: cell-based; settings: up to 20 μM, 3 days, CCK-8
type I PRMTs = experiment: Methyltransferase selectivity assay, type I PRMTs; format: biochemical
PRMT6 [6] = molecular target: T1, PRMT6; experiment: Mass spectrometry analysis of covalent binding, PRMT6; settings: 15 μM protein, 300 μM compound, 1 h at rt
PRMT6 [7] = molecular target: T1, PRMT6; experiment: KI and kinact determination from time-dependent IC50 values; format: biochemical; settings: for time dependence of IC50 against PRMT6: preincubation 1 to 30 min, SPA
MCF-7 cells = experiment: Cell viability assay; format: cell-based; settings: up to 20 μM, 3 days, CCK-8
PRMT3 [8] = molecular target: T2, PRMT3; experiment: Mass spectrometry analysis of covalent binding, PRMT3; settings: 15 μM protein, 300 μM compound, 1 h at rt
PRMT4 = molecular target: T4, PRMT4 (Homo sapiens, UniProt Q86X55); experiment: Mass spectrometry analysis of covalent binding, PRMT4; settings: 15 μM protein, 300 μM compound, 1 h at rt
T4 sequence (Q86X55 1-608): T3 sequence (Q86X55 1-608)

DNMT3A/3L = DNMT3A/3L (Homo sapiens, UniProt Q9Y6K1); experiment: Methyltransferase selectivity assay, DNMT3A/3L; format: biochemical; settings: read-out: inhibition of DNMT3A/3L
Sequence of DNMT3A/3L (Q9Y6K1 whole entry, looked up, species assumed): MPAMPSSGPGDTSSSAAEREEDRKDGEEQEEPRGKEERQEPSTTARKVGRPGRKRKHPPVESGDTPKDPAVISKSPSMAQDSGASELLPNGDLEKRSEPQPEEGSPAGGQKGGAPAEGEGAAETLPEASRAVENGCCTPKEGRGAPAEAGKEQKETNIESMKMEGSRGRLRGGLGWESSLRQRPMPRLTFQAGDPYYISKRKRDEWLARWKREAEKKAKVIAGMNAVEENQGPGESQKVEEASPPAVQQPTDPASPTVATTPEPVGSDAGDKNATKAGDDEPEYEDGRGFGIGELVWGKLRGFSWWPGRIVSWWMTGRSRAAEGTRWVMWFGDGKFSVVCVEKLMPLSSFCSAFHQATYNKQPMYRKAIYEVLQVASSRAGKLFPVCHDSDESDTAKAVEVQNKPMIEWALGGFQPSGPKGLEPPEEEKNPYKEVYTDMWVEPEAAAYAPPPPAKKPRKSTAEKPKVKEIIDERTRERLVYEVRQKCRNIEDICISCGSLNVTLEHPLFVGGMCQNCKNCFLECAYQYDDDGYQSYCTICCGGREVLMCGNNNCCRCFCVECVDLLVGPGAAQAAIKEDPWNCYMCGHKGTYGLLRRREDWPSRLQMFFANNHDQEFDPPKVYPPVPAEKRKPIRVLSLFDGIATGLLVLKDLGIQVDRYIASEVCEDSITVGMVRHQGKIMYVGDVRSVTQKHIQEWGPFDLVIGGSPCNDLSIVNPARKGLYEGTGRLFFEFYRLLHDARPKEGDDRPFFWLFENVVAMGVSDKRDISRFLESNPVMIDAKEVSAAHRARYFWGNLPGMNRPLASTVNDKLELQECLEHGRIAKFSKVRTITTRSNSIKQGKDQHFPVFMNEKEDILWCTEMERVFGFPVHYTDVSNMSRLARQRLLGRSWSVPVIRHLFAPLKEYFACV
Sequence of DNMT3A/3L (Q9UJW3 whole entry partner, species assumed): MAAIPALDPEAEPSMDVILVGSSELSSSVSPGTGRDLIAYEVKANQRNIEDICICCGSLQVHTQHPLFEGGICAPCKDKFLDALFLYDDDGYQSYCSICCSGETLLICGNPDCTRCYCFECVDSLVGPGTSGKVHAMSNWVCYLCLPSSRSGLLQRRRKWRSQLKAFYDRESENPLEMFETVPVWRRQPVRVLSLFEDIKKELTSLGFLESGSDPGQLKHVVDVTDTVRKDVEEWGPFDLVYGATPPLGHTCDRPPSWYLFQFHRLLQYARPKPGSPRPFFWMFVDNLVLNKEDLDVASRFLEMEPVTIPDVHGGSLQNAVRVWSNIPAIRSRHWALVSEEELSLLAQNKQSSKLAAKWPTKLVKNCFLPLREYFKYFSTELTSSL

[9] = system: PKMTs, DNMTs, and type II, III PRMTs; experiment: Methyltransferase selectivity assay, PKMTs, DNMTs and type II, III PRMTs; format: biochemical; settings: at 10 μM
PRMT1 = PRMT1 (Homo sapiens, UniProt Q99873); experiment: Mass spectrometry analysis of covalent binding, PRMT1; settings: 15 μM protein, 300 μM compound, 1 h at rt
Sequence of PRMT1 (Q99873 whole entry, species assumed): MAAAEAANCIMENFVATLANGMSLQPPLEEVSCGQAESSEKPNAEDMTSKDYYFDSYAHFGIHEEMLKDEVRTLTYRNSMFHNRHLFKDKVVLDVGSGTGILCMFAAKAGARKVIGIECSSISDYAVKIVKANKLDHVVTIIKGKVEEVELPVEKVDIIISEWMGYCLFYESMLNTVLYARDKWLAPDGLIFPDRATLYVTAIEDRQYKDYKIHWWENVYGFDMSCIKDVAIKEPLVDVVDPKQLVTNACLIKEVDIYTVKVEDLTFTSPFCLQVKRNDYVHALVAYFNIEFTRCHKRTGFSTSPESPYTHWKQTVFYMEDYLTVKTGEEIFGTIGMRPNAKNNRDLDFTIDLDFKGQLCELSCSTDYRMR

PRMT8 = PRMT8 (Homo sapiens, UniProt Q9NR22); experiment: Mass spectrometry analysis of covalent binding, PRMT8; settings: 15 μM protein, 300 μM compound, 1 h at rt
Sequence of PRMT8 (Q9NR22 whole entry, species assumed): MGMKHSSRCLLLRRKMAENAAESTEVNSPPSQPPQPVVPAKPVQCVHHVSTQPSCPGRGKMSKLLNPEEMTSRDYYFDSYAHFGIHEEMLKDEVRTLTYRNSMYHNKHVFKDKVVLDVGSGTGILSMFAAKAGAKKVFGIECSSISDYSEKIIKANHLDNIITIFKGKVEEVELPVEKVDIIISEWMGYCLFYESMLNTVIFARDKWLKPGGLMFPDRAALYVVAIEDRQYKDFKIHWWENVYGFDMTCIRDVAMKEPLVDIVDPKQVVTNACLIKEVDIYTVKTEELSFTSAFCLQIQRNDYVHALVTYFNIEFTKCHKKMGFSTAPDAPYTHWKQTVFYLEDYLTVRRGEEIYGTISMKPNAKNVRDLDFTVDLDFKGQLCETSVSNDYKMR

T1 sequence (Q96LA8 whole entry): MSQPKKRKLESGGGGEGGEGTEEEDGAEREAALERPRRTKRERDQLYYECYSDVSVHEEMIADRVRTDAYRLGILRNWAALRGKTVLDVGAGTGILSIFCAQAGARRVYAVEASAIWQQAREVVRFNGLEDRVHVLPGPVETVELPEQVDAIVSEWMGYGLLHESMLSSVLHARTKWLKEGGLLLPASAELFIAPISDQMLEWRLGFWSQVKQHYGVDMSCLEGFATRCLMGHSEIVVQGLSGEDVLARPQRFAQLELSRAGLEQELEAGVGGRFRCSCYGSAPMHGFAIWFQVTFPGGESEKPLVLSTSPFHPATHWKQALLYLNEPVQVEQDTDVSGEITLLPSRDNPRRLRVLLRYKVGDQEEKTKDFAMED

Compound	inhibition of H3R2me2a in cells (PRMT6 [1]; concentrations up to 10 μM)	reduction of PRMT3-dependent H4R3me2a in cells (PRMT3 [2])	reduction of BAF155-Rme2a levels in cells [3]	cytotoxicity in HEK293T cells (HEK293T cells)	cytotoxicity in PNT2 cells [5]	inhibition of type I PRMTs (type I PRMTs; at 10 μM) [%]	inhibition of type I PRMTs (type I PRMTs; at 50 μM) [%]	covalent modification of PRMT6 (MS adduct) (PRMT6 [6])	time dependence of IC50 against PRMT6 (PRMT6 [7])	cytotoxicity in MCF-7 cells (MCF-7 cells)	further results
CCC(=O)Nc1cccc(-c2c[nH]cc2CN(C)CCN)c1 [Compound 5, N-(3-(4-(((2-Aminoethyl)(methyl)amino)methyl)-1H-pyrrol-3-yl)-phenyl)propionamide]	inhibited H3R2me2a, but was less effective than compound 4	did not significantly reduce this mark	did not reduce	not cytotoxic	not cytotoxic	> 40	> 80	neither compound 5 nor compound 7 could modify PRMT6 in a detected level	no significant change in IC50 values	not cytotoxic	pIC50 against PRMT6 (PRMT6 [4]): 7.6 ± 0.1
CC(C)Oc1ccc(-c2c[nH]cc2CN(C)CCN)cc1 [MS023, reference compound]											inhibition of H3R2me2a in cells (PRMT6 [1]; at 2 μM (positive control)): effectively inhibited H3R2me2a
C=CC(=O)Nc1cccc(-c2c[nH]cc2CN(C)CCO)c1 [Compound 7, N-(3-(4-(((2-Hydroxyethyl)(methyl)amino)methyl)-1H-pyrrol-3-yl)phenyl)acrylamide]	did not significantly inhibit H3R2me2a	did not significantly reduce this mark	did not reduce	not cytotoxic	not cytotoxic			neither compound 5 nor compound 7 could modify PRMT6 in a detected level		not cytotoxic	
C=CC(=O)Nc1cccc(-c2c[nH]cc2CN(C)CCN)c1 [Compound 4, N-(3-(4-(((2-Aminoethyl)(methyl)amino)methyl)-1H-pyrrol-3-yl)-phenyl)acrylamide]		did not significantly reduce this mark	did not reduce	not cytotoxic	not cytotoxic	> 90	> 50	adduct with mass equal to PRMT6 plus compound 4, with no detectable unmodified PRMT6	time-dependent potencies	not cytotoxic	selectivity for PRMT6 over PRMT1 in cells (PRMT6 [1]; from cellular assays): ~ 4 fold; selectivity for PRMT6 over PRMT4 in cells (PRMT6 [1]; from cellular assays): > 20 fold; covalent modification of PRMT3 (MS adduct) (PRMT3 [8]): no adducts with other type I PRMTs could be detected; covalent modification of PRMT4 (MS adduct) (PRMT4): no adducts with other type I PRMTs could be detected; inhibition at 50 µM (DNMT3A/3L): > 50%; inhibition of PKMTs, DNMTs, and type II, III PRMTs [9]: did not significantly inhibit; covalent modification of PRMT1 (MS adduct) (PRMT1): no adducts with other type I PRMTs could be detected; kinact/KI (PRMT6 [7]): 83000 M⁻¹ s⁻¹; covalent modification of PRMT8 (MS adduct) (PRMT8): no adducts with other type I PRMTs could be detected
